The structures appear in SMILES notation. Where two headings read alike, the source gives them in different places.

This is an account of results in patent US20230136562A1, “SPIROUREA DERIVATIVES” (Idorsia Pharmaceuticals Ltd, priority 2020, published 2023).

The subject of this assay is primary neuronal cultures from embryonic rat brains. Briefly: Rat oscillation assay (FLIPR, neuronal calcium oscillations). Format: cell-based. Here is the method:
A) Rat Oscillation Assay:
This assay is a functional phenotypic assay designed to mimic epileptic seizures using primary neuronal cultures from embryonic rat brains, which form a functional neuronal network that generate synchronized intracellular calcium concentration oscillations when cultured at high density in 384-well plate. The epileptic phenotype is induced by incubating the neurons in magnesium-free assay buffer, that results in increased probability of NMDA receptor activation, leading to an increased frequency and amplitude of intracellular calcium oscillations. Once neurons are incubated with the calcium indicator dye Fluo-8 AM (Tebu-bio), neuronal calcium oscillations can be monitored in real time using FLIPR® Tetra (fluorometric plate reader, Molecular Devices). With these recordings, the effect of anti-epileptic drugs can be quantified. The anti-epileptic effect of compounds, which activate directly or indirectly the Kv7 channels can be modulated by the Kv7 channel blocker XE-991. The assay was performed as described previously (Pacico N, Mingorance-Le Meur A. New In Vitro Phenotypic Assay for Epilepsy: Fluorescent Measurement of Synchronized Neuronal Calcium Oscillations. PLoS ONE 9(1) 2014) with modifications described hereafter.
Animal care followed standard procedures in accordance with swiss institutional guidelines. Dissociated neuronal cultures were obtained from cerebral cortices of embryonic Wistar rats at embryonic stage E18 (Charles River). The uterine horns were removed by caesarian surgery from deeply anesthetized rats (Isofurane) and sacrificed by decapitation. The embryos were decapitated by closing forceps. The brains were isolated and dissected one by one in ice-cold PBS (Life Technologies) under optical control using a binocular. Meninges, olfactory bulbs, and basal ganglia were removed. Cortical hemispheres (still including the hippocampus) were cut in small pieces with tweezers and placed on ice in pre-chilled Hibernate-E medium (Life technology). The hemispheres were then incubated in 10 mL of Hibernate-E containing 15 U/mL papain (Worthington) for 25 min at 30° C. with gentle mixing every 10 min. Genomic DNA was then digested by prolonging the incubation during 10 min at 37° C. in presence of 4 U/mL rDNase I (Ambion). The obtained suspension was then centrifuged at 800 g for 5 min and the cell pellet was resuspended in 2 mL Hibernate-E and gently dissociated by pipetting up and down 10 times with a plastic Pasteur pipette resulting in a homogenous cell suspension. This suspension was immediately filtered through a 70 µm cell strainer (MACS® SmartStrainer, Miltenyi), collected in 10 mL Hibernate-E and centrifuged at 800 g for 5 min. The cell pellet was resuspended in Neurobasal medium, supplemented with 2% B-27, 0.5 mM Glutamax-I, 100 U/mL penicillin, 100 µg/mL streptomycin (Life Technologies) and diluted at the final concentration of 300′000 cells/mL. One day before plating the cells, 384-well plates were coated with 25 μL/well of 0.1% poly-L-lysine solution (Sigma), incubated overnight at 37° C., washed two times with sterile distilled water and allowed to dry at room temperature for >2 h. The neurons were seeded at a density of 15′000 cells/well in 50 μL/well in a 384-well black, clear-bottomed plates (Corning) and subsequently maintained in an incubator at 37° C., 5% CO2 and 95% humidity for 8 to 10 days. After 3 and 7 days, 40% of media was renewed under sterile conditions.
Protocol Rat Oscillation Assay
Neurons seeded in the assay plates were washed with Hank's balanced salt solution (HBSS) devoid of Ca^2+ and Mg^2+, supplemented with 20 mM HEPES (Life Technologies) and 2 mM CaCl2 (Sigma), pH 7.4 (hereafter called Assay buffer) using a Biotek EL406 plate washer. Neurons were loaded with 1 μM Fluo-8 AM in Assay buffer for 15 min at 37° C., 5% CO2. […]

Setting [1] is: AUC of fluorescence measured 20 min after compound addition, read-out: FLIPR: IC50 [nM] 20 min.
Where [2] appears, read: Acute phase, ratio of AUC fluorescence before and after compound addition, read-out: FLIPR: IC50 [nM] acute.
The mark [3] stands for this setting: Rattus norvegicus, 20 min, AUC of fluorescence measured 20 min after compound addition, read-out: FLIPR: IC50 [nM] 20 min.
[4] abbreviates: Rattus norvegicus, Acute phase, ratio of AUC fluorescence before and after compound addition, read-out: FLIPR: IC50 [nM] acute.

What is called IC50 is the point on the concentration scale where inhibition reaches its midpoint. Take `O=C(NCc1cccc(C(F)(F)F)c1)NC1CC2(C1)CC2(F)F` (single isomer, unassigned) [Example 4, 1-(1,1-Difluoro-spiro[2.3]hex-5-yl)-3-(3-trifluoromethyl-benzyl)-urea]: the IC50 by setting is: under setting [1], 152 nM; under setting [2], 175 nM.

As to `N#CC(NC(=O)NC1CC2(CCC2)C1)c1cccc(C(F)(F)F)c1` (racemic) [Example 89, 1-[(±)-Cyano-(3-trifluoromethyl-phenyl)-methyl]-3-spiro[3.3]hept-2-yl-urea], the IC50 by setting is: under setting [3], 74 nM; under setting [4], 75 nM.

In the case of `COc1c(OCC(F)(F)F)cccc1C(C)NC(=O)NC1CC2(CCC2)C1` (racemic) [Example 31, (±)-1-{1-[2-Methoxy-3-(2,2,2-trifluoro-ethoxy)-phenyl]-ethyl}-3-spiro[3.3]hept-2-yl-urea], the IC50 is, setting by setting: under setting [3], 25 nM; under setting [4], 20 nM.

As for `O=C(NCc1cccc(C(F)(F)F)c1)NC1CC2(C1)CC2(F)F` (single isomer, unassigned) [Example 5, 1-(1,1-Difluoro-spiro[2.3]hex-5-yl)-3-(3-trifluoromethyl-benzyl)-urea], the IC50 under setting [2] is 82 nM and the IC50 under setting [3] came to 156 nM.

For `CC(NC(=O)NC1CC2(CCC2)C1)c1cccc(OC(C)C(F)(F)F)c1` (centres unmarked) [Example 102, 1-(Spiro[3.3]heptan-2-yl)-3-(1-(3-((1,1,1-trifluoropropan-2-yl)oxy)phenyl)ethyl)urea], the IC50 reads like this: under setting [3], 0.5 nM; under setting [4], 2.8 nM.

`CC(NC(=O)NC1CC2(CCC2)C1)c1ccnc(OCC(F)(F)F)c1` (racemic) [Example 93, (±)-1-Spiro[3.3]hept-2-yl-3-{1-[2-(2,2,2-trifluoro-ethoxy)-pyridin-4-yl]-ethyl}-urea]: the IC50 turned out to be 2.2 nM under setting [3] and 1.9 nM under setting [4].

As to `CC(Oc1nccc(CNC(=O)NC2CC3(CCC3)C2)n1)C(F)(F)F` (racemic) [Example 118, (±)-1-Spiro[3.3]hept-2-yl-3-[2-(2,2,2-trifluoro-1-methyl-ethoxy)-pyrimidin-4-ylmethyl]-urea], the IC50 worked out at 81 nM under setting [3] and 116 nM under setting [4].

`CC(NC(=O)NC1CC2(CC2)C1)c1cccc2c1OC(F)(F)O2` (racemic) [Example 121, (±)-1-[1-(2,2-Difluoro-benzo[1,3]dioxol-4-yl)-ethyl]-3-spiro[2.3]hex-5-yl-urea]: the IC50 under setting [3] was found to be 1210 nM and the IC50 under setting [4] was determined as 990 nM.

`CC(Oc1nccc(CNC(=O)NC2CC3(CCC3)C2)n1)C(F)(F)F` (single isomer, unassigned) [Example 181, 1-Spiro[3.3]hept-2-yl-3-[2-(2,2,2-trifluoro-1-methyl-ethoxy)-pyrimidin-4-ylmethyl]-urea]: the IC50 is, setting by setting: under setting [1], 564 nM; under setting [2], 404 nM.

`CCOCCC(NC(=O)NC1CC2(CCC2)C1)c1ccnc(OCC(F)(F)F)c1` (racemic) [Example 77, (±)-1-{3-Ethoxy-1-[2-(2,2,2-trifluoro-ethoxy)-pyridin-4-yl]-propyl}-3-spiro[3.3]hept-2-yl-urea]: the IC50 reads like this: under setting [3], 226 nM; under setting [4], 279 nM.

Take `O=C(NCc1cccc(S(=O)(=O)C(F)(F)F)c1)NC1CC2(CCC2)C1` [Example 42, 1-Spiro[3.3]hept-2-yl-3-(3-trifluoromethanesulfonyl-benzyl)-urea]: the IC50 by setting is: under setting [3], 22 nM; under setting [4], 27 nM.

`O=C(NCc1nccc(OCC(F)(F)F)n1)NC1CC2(CCC2)C1` [Example 112, 1-Spiro[3.3]hept-2-yl-3-[4-(2,2,2-trifluoro-ethoxy)-pyrimidin-2-ylmethyl]-urea]: the IC50 reads like this: under setting [3], 1420 nM; under setting [4], 1100 nM.

In the case of `C[C@@H](NC(=O)NC1CC2(CCC2)C1)c1ccnc(OC(F)F)c1` (single isomer, unassigned) [Example 167], the IC50 by setting is: under setting [3], 1750 nM; under setting [4], 1280 nM.

`CC(NC(=O)NC1CC2(CCC2)C1)c1cc(C(F)(F)F)ccc1Br` (racemic) [Example 19, (±)-1-[1-(2-Bromo-5-trifluoromethyl-phenyl)-ethyl]-3-spiro[3.3]hept-2-yl-urea]: the IC50 reads like this: under setting [3], 274 nM; under setting [4], 337 nM.

For the compound `CC(NC(=O)NC1CC2(CCC2)C1)c1cccc(S(F)(F)(F)(F)F)c1` (racemic) [Example 34, (±)-1-(1-(3-(pentafluoro-λ^6-sulfaneyl)phenyl)ethyl)-3-(spiro[3.3]heptan-2-yl)urea], the IC50 reads like this: under setting [3], 8.5 nM; under setting [4], 6.7 nM.

As for `CN(C)CC(NC(=O)NC1CC2(CCC2)C1)c1ccnc(OCC(F)(F)F)c1` (racemic) [Example 94, (±)-1-{2-Dimethylamino-1-[2-(2,2,2-trifluoro-ethoxy)-pyridin-4-yl]-ethyl}-3-spiro[3.3]hept-2-yl-urea], the IC50 by setting is: under setting [3], 117 nM; under setting [4], 197 nM.

As for `COc1c(CNC(=O)NC2CC3(CCC3)C2)cccc1C(F)(F)F` [Example 22, 1-(2-Methoxy-3-trifluoromethyl-benzyl)-3-spiro[3.3]hept-2-yl-urea], the IC50 under setting [3] turned out to be 268 nM and the IC50 under setting [4] was 275 nM.

Take `COC[C@H](NC(=O)NC1CC2(CC2)C1)c1ccnc(OCC(F)(F)F)c1` (single isomer, unassigned) [Example 188]: the IC50 runs as follows: under setting [3], 5.6 nM; under setting [4], 5.3 nM.

For `CN(C)CC(Oc1cc(CNC(=O)NC2CC3(CCC3)C2)ccn1)C(F)(F)F` (racemic) [Example 106, (±)-1-[2-(1-Dimethylaminomethyl-2,2,2-trifluoro-ethoxy)-pyridin-4-ylmethyl]-3-spiro[3.3]hept-2-yl-urea], the IC50 runs as follows: under setting [3], 757 nM; under setting [4], 535 nM.

As for `O=C(NC1CC2(CCC2)C1)NC(c1cccc(C(F)(F)F)c1)C(F)(F)F` (centres unmarked) [Example 58, 1-Spiro[3.3]hept-2-yl-3-[2,2,2-trifluoro-1-(3-trifluoromethyl-phenyl)-ethyl]-urea], the IC50 worked out at 16 nM under setting [3] and 20 nM under setting [4].

For `CC(NC(=O)NC1CC2(CCC2)C1)c1ccc2c(c1)OC(F)(F)O2` (racemic) [Example 65, (±)-1-[1-(2,2-Difluoro-benzo[1,3]dioxol-5-yl)-ethyl]-3-spiro[3.3]hept-2-yl-urea], the IC50 under setting [3] is 10 nM and the IC50 under setting [4] was 6.7 nM.

With `O=C(NCc1ccc(F)c(C(F)(F)F)c1)NC1CC2(CCC2)C1` [Example 17, 1-(4-Fluoro-3-trifluoromethyl-benzyl)-3-spiro[3.3]hept-2-yl-urea], the IC50 under setting [3] came out at 145 nM and the IC50 under setting [4] stood at 141 nM.

With `CC(NC(=O)NC1CC2(CC2)C1)c1cccc(OC(F)(F)F)c1` (racemic) [Example 141, (±)-1-Spiro[2.3]hex-5-yl-3-[1-(3-trifluoromethoxy-phenyl)-ethyl]-urea], the IC50 worked out at 26 nM under setting [3] and 22 nM under setting [4].

In the case of `CC(NC(=O)NC1CC2(CC2)C1)c1cccc(C(F)(F)F)c1` (racemic) [Example 140, (±)-1-Spiro[2.3]hex-5-yl-3-[1-(3-trifluoromethyl-phenyl)-ethyl]-urea], the IC50 is, setting by setting: under setting [3], 59 nM; under setting [4], 27 nM.

On to `O=C(NCc1ccnc(OC(F)(F)F)c1)NC1CC2(CCC2)C1` [Example 96, 1-Spiro[3.3]hept-2-yl-3-(2-trifluoromethoxy-pyridin-4-ylmethyl)-urea], for which the IC50 amounted to 61 nM under setting [3] and 82 nM under setting [4].
